Measurements: US20150328310A1, “METHODS AND COMPOSITIONS RELATING TO TREATMENT OF CANCER” (THE PENN STATE RESEARCH FOUNDATION, priority 2012, published 2015)
Read-outs that look alike come from different tables or passages of the source.

How the values were obtained:
SW480 = experiment: Cell viability assay of ISC-4 combined with approved antitumor agents, SW480; assay type: cell-based, human; design: key: uncooperative (−); cooperative (+); synergistic (*); ambiguous (?); settings: ISC-4 (1, 2, or 4 μM) plus therapy at putative EC12.5, EC25, EC50; compared to monoagent activity
Experimental: (§1) Cell lines are obtained from ATCC and cultured in ATCC-recommended media in a humidified incubator at 5% CO2 and 37° C. For cell viability assays, cells are seeded into 96-well black-walled plates at a concentration of 1×10^5 cells per mL in fresh media and in a volume of 100 μL per well. Cells are allowed to adhere overnight and are treated the next day as indicated. At endpoint, CellTiter-Glo (Promega) assays are performed according to the manufacturer's protocol, and the bioluminescent readout is recorded on an IVIS imaging system (Xenogen).
(§2) The SW480 and RKO human colon cancer cell lines are used for initial profiling based on their heterogeneous oncogenic genetic alterations.
(§3) Combinatorial activities of ISC-4 and each listed drug are compared to monoagent activities of each drug alone by cell viability assays and determined to be uncooperative (−), cooperative (+), synergistic (*), or ambiguous (?).

RKO = experiment: Cell viability assay of ISC-4 combined with approved antitumor agents, RKO; assay type: cell-based, human; design: key: uncooperative (−); cooperative (+); synergistic (*); ambiguous (?); settings: ISC-4 (1, 2, or 4 μM) plus therapy at putative EC12.5, EC25, EC50; compared to monoagent activity
Experimental: as §1, §2, §3

[1] = system: SW480 and RKO colon cancer cell lines; settings: estimated from the literature, dose used with ISC-4 in FIG. 2, cited from earlier work
[2] = Serum chemistry profiles of mice; assay type: in vivo; settings: serum 2 days after last dose; ISC-4 3 mg/kg i.p., cetuximab 10 mg/kg i.v., twice a week for 2 weeks
Experimental: Athymic female nude mice (Charles River Laboratories) are inoculated with 1×10^6 of 5-FU-resistant RKO or HT-29 cells in each rear flank as a 200 μL suspension of 1:1 Matrigel (BD):PBS. Treatment is initiated once tumors reached a mean volume of […], intraperitoneal or intravenous injections are given at a total volume of 200 μL in DMSO. […] Tissue is paraffin-embedded and sectioned. H&E staining (Daiko) and TUNEL staining (Millipore) are carried out according to the manufacturer's protocols. For serum chemistry assays, 1 mL of blood is harvested from anesthetized mice by terminal cardiac puncture of the left ventricle. For serum chemistry, 500 μL is placed into a microfuge tube and allowed to clot for 30 minutes at room temperature followed by centrifugation. Serum is removed, centrifuged again to remove any additional debris prior to analysis.
Serum was collected 2 days following the last dose.

[3] = system: panel of human cancer cell lines; experiment: Cell viability assay of ISC-4 in a panel of human cancer cell lines (72 hr); assay type: cell-based; settings: human colon cancer cell lines with the exception of HT-29
Experimental: as §1, with “(Xenogen). For cell synchronization, cells are incubated with 200 ng/mL nocodazole for 16 hours prior to treatment. Chloroquine is obtained from Sigma. zVAD-fmk is obtained from Promega and used at a working concentration of 25 μM. ISC-4 is synthesized as described in Sharma, A. K., et al., J. of Med. Chem., 2008, 51(24):7820-7826.” for “(Xenogen).”
The in vitro activity of ISC-4 is tested in a panel of human cancer cell lines to characterize its spectrum of activity.
The isogenic HCT116 cell lines indicate that ISC-4 activity is likely p53- and Bax-independent.

[4] = system: human colon cancer cell lines; experiment: Cell cycle / sub-G1 DNA content analysis after ISC-4 treatment; assay type: cell-based
Experimental: (§4) For sub-G1 DNA content analysis, cells are trypsinized at the indicated time points and fixed in 80% ethanol at 4° C. for a minimum of 30 minutes. Fixed cells are then stained with propidium iodide in the presence of RNase and analyzed on an Epics Elite flow cytometer (Beckman Coulter).
The effect of ISC-4 treatment on cell cycle profiles of synchronous and asynchronous HCT116 (FIG. 1B) and HT-29 (FIG. 1C) cell lines is shown. […] Thus, ISC-4 has modest single agent activity against human colon cancer cells by causing cell death and a decrease in proliferation.

RKO cells = experiment: Sub-G1 content by flow cytometry, combination; assay type: cell-based, human; settings: zVAD-fmk 25 μM
Experimental: as §4

Row | Compound | Combinatorial effect of ISC-4 with the listed therapy, SW480 (SW480) | Combinatorial effect of ISC-4 with the listed therapy, RKO (RKO) | EC12.5 [1] | EC25 [1] | EC50 ([1]; read-out: EC50) [µM] | further results
1 | O=c1[nH]cc(F)c(=O)[nH]1 [5-FU, 5-fluorouracil] | − | − | 4.5 µM | 9000 nM | 18 | 
2 | CC(C)C[C@H](NC(=O)[C@H](Cc1ccccc1)NC(=O)c1cnccn1)B(O)O [Bortezomib] | ? | + |  |  |  | 
3 | N.N.[Cl][Pt][Cl] [Cisplatin] | + | − | 1.125 µM | 2250 nM | 4.5 | 
4 | Nc1nc(Cl)nc2c1ncn2[C@H]1C[C@H](O)[C@@H](CO)O1 [Cladribine] | − | − | 0.025 µM | 50 nM | 0.1 | 
5 | CC(=O)O[C@@]12CO[C@@H]1C[C@H](O)[C@@]1(C)C(=O)[C@H](O)C3=C(C)[C@@H](OC(=O)[C@H](O)[C@@H](NC(=O)OC(C)(C)C)c4ccccc4)C[C@@](O)([C@@H](OC(=O)c4ccccc4)[C@H]21)C3(C)C [Docetaxel] | − | − | 2.5 µM | 5000 nM | 10 | 
6 | COc1cccc2c1C(=O)c1c(O)c3c(c(O)c1C2=O)C[C@@](O)(C(=O)CO)C[C@@H]3O[C@H]1C[C@H](N)[C@H](O)[C@H](C)O1 [Doxorubicin] | − | ? | 16.25 µM | 32500 nM | 65 | 
7 | COc1cc([C@@H]2c3cc4c(cc3[C@@H](O[C@@H]3O[C@@H]5CO[C@@H](C)O[C@H]5[C@H](O)[C@H]3O)[C@H]3COC(=O)[C@H]23)OCO4)cc(OC)c1O [Etoposide] | − | − | 1.25 µM | 2500 nM | 5 | 
8 | COc1cc2ncnc(Nc3ccc(F)c(Cl)c3)c2cc1OCCCN1CCOCC1 [Gefitinib] | + | + | 5.75 µM | 11500 nM |  | 
9 | Nc1ccn([C@@H]2O[C@H](CO)[C@@H](O)C2(F)F)c(=O)n1 [Gemcitabine] | − | + | 0.5 µM | 1000 nM | 2 | 
10 | [Se]=C=NCCCCc1ccccc1 [ISC-4] |  |  |  |  |  | ALT [2]: 29 ± 2 U/L; AST [2]: 221 ± 138 U/L; Alk. Phos. (alkaline phosphatase) [2]: 35 ± 10 U/L; BUN (blood urea nitrogen) [2]: 22 ± 1 mg/dL; Cl [2]: 107 ± 3 mmol/L; Creatinine [2]: 0.1 ± 0 mg/dL; Glucose [2]: 309 ± 8 mg/dL; K [2]: 4.8 ± .1 mmol/L; LDH (lactate dehydrogenase) [2]: 1074 ± 531 U/L; Na [2]: 155 ± 2 mmol/L; T. Bil (total bilirubin) [2]: 0.65 ± 0.07 mg/dL; Sensitivity to ISC-4 treatment [3]: moderately sensitive; Concentration at which ISC-4-induced sub-G1 content becomes apparent ([4]; colon cancer cell lines, 0, 1, 2, 4, 8, or 16 μM ISC-4, dose-dependent): > 8 µM; Sub-G1 content ([4]; synchronized HCT116 and HT-29 cells): modest increase in sub-G1 content; ISC-4-induced sub-G1 content on co-incubation with pan-caspase inhibitor zVAD-fmk (RKO cells): significantly inhibited
11 | CCc1c2c(nc3ccc(OC(=O)N4CCC(N5CCCCC5)CC4)cc13)-c1cc3c(c(=O)n1C2)COC(=O)[C@]3(O)CC [Irinotecan] | − | − | 3.38 µM | 6750 nM | 13 | 
12 | CS(=O)(=O)CCNCc1ccc(-c2ccc3ncnc(Nc4ccc(OCc5cccc(F)c5)c(Cl)c4)c3c2)o1 [Lapatinib] | − | − | 1.75 µM | 3500 nM | 7 | 
13 | O=C1[O][Pt]2([NH][C@@H]3CCCC[C@H]3[NH]2)[O]C1=O [Oxaliplatin] | − | − | 0.075 µM | 150 nM | 0.3 | 
14 | CC(=O)O[C@H]1C(=O)[C@@]2(C)[C@H]([C@H](OC(=O)c3ccccc3)[C@]3(O)C[C@H](OC(=O)[C@H](O)[C@@H](NC(=O)c4ccccc4)c4ccccc4)C(C)=C1C3(C)C)[C@]1(OC(C)=O)CO[C@@H]1C[C@@H]2O [Paclitaxel] | − | − | 0.0025 µM | 5 nM | 0.01 | 
15 | Nc1nc2[nH]cc(CCc3ccc(C(=O)N[C@@H](CCC(=O)O)C(=O)O)cc3)c2c(=O)[nH]1 [Pemetrexed] | − | − | 0.25 µg/mL | 0.5 µg/mL |  | EC50 [1]: 1 µg/mL
16 | CNC(=O)c1cc(Oc2ccc(NC(=O)Nc3ccc(Cl)c(C(F)(F)F)c3)cc2)ccn1 [Sorafenib] | + | + | 8 µM | 16000 nM | 32 | 
17 | CC[C@]1(O)C[C@H]2CN(CCc3c([nH]c4ccccc34)[C@@](C(=O)OC)(c3cc4c(cc3OC)N(C=O)[C@H]3[C@@](O)(C(=O)OC)[C@H](OC(C)=O)[C@]5(CC)C=CCN6CC[C@]43[C@@H]65)C2)C1 [Vincristine] | − | − | 3.5e-05 µM | .07 nM | 0.00014 | 
18 | Panitumumab | − | − | 0.75 µg/mL | 1.5 µg/mL |  | EC50 [1]: 3 µg/mL
